Literature values in EP1932526A1, “Morin, a new inhibitor of microbial hyaluronate lyase” (Leibniz-Institut für Naturstoff-Forschung und …, priority 2006, dated 2008).

Settings: species and route not given

In the case of `O=c1c(O)c(-c2ccc(O)cc2O)oc2cc(O)cc(O)c12` [morin, 2',3,4',5,7-pentahydroxyflavone], the LD50 value is given as 555 mg/kg.
